Assay results from patent US5190938A, “Derivatives of 2-hydroxythiophene and -furan fused with a nitrogen-containing ring and their application in therapy” (Sanofi, priority 1989, dated 1993).
Where a name gives a salt, the structure may show the parent alone. Read-outs that look alike come from different tables or passages of the source. Each block holds one compound with its values, some of them ahead of it.

What was measured:
[1] = biological target: porcine pancreatic elastase (Sus scrofa, UniProt P00772); assay: In vitro inhibition of elastase enzymatic activity (hydrolysis of Suc-Ala-Ala-Pro-LeupNA), Table I; format: biochemical; details: 25° C., pH 8.8, concentration in the final solution
Protocol: (§1) a) In vitro inhibition of elastase enzymatic activity.
(§2) The variation of the rate of hydrolysis of a substrate specific of elastases was studied in the presence and absence of the test compound according to a conventional technique. The experiments were performed with porcine pancreatic elastase, and human neutrophil elastase extracted from purulent sputum; the enzyme substrate was a chromogenic tetrapeptide, N-succinyl-L-alanyl-L-alanyl-[…]-L-leucyl-p-nitroanilide, designated Suc-Ala-Ala-Pro-LeupNA, which, on hydrolysis, liberates p-nitroaniline, the appearance of which in the medium is followed in a spectrophotometer; alpha1 -antitrypsin was used as a standard inhibitor. The experiments were performed at 25° C., the spectrophotometric measurement being made at 410 nm.
(§3) The solution of substrate was prepared by dissolving 5.8 mg of anilide in 20 ml of buffer solution containing 24.22 g/l of Tris-HCl with 754 mg/l of CaCl2, adjusted to pH 8.8.
(§4) The solution of enzyme in the same buffer was at a concentration of 0.1 g/l, while the solutions of test compound in the same buffer were at concentrations of between 0.1 mM and 0.01 μM.
(§5) 200 μl of solution of substrate, 75 μl of buffer solution and 200 μl of solution of the test compound, or of buffer solution in the case of the controls, were mixed in tubes. After 20 minutes at 25° C., the tube was placed in the recording spectrophotometer and 25 μl of the solution of enzyme were added to this medium; the change in the optical density ΔOD was recorded for 30 seconds.
(§6) The percentage inhibition is defined as the difference between the change in OD for the control sample and that for the test sample, divided by the change for the control and multiplied by 100. [formula]

human leucocyte elastase = biological target: T1, human leucocyte elastase (Homo sapiens, UniProt P08246); assay: In vitro inhibition of elastase enzymatic activity (hydrolysis of Suc-Ala-Ala-Pro-LeupNA), Table II; format: biochemical; details: human leucocyte (neutrophil) elastase from purulent sputum; 25° C.; pH 8.8; concentration in the final solution
T1 construct: human neutrophil elastase extracted from purulent sputum; from tissue; host or cells: purulent sputum
T1 sequence (P08246 30-247 limits assumed): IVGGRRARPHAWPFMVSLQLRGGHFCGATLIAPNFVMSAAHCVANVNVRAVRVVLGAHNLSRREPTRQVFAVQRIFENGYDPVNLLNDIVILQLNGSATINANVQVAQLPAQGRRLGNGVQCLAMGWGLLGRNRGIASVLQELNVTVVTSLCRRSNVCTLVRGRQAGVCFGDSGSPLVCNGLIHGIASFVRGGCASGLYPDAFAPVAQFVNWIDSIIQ
Protocol: as §1, §2, §3, §4, §5, §6

platelet aggregation = assay: Platelet aggregation-inhibitory activity in rats (blood taken from treated animals, ADP or collagen added); format: in vivo; details: Rattus norvegicus, po, orally
From the text: b) Platelet aggregation-inhibitory activity in rats.

[2] = ADP, read-out: percentage inhibition of aggregation, ADP
[3] = collagen, read-out: percentage inhibition of aggregation, collagen

Chain of porcine pancreatic elastase (P00772 27-266): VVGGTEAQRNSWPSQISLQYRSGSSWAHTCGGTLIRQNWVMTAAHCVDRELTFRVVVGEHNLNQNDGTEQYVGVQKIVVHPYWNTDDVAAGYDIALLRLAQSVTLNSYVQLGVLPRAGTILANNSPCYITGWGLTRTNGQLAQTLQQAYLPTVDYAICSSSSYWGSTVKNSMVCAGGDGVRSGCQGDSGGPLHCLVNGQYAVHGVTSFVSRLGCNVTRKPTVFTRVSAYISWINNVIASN

SMILES: CC(c1ccccc1)[N+]1([O-])CCc2sc(OC(=O)C(C)(C)C)cc2C1 (stereo not shown) [SR 27354]
IC50 [1]: 10 µM
IC50 (human leucocyte elastase): 2.6 µM

SMILES: CC(C)C(=O)Oc1cc2c(s1)CCN(Cc1ccccc1Cl)C2 [SR 26772]
IC50 [1]: 5.8 µM
IC50 (human leucocyte elastase): 2.6 µM

SMILES: CC(C)(C)C(=O)Oc1cc2c(o1)CCN(Cc1ccccc1Cl)C2 [SR 26938, 5-(2-chlorobenzyl)-4,5,6,7-tetrahydrofuro-[3,2-c]pyrid-2yl t-butyrate]
IC50 [1]: 3.6 µM
IC50 (human leucocyte elastase): 3.1 µM

SMILES: CC(C)(C)C(=O)Oc1cc2c(s1)CCN(Cc1ccccc1Cl)C2 [SR 26766, 5-(2-chlorobenzyl)-4,5,6,7-tetrahydrothieno[3,2-c]pyridyl-2 t-butyrate]
inhibition at 100 mg/kg (platelet aggregation; [2]): 61%
inhibition at 100 mg/kg (platelet aggregation; [3]): 62%

SMILES: CC(C)C(=O)Oc1cc2c(s1)CCN(Cc1ccc(Cl)cc1)C2 [SR 26769]
IC50 [1]: 7 µM
IC50 (human leucocyte elastase): 30 µM

SMILES: CC(C)(C)C(=O)Oc1cc2c(s1)CCN(Cc1ccccc1)C2 [SR 26827]
inhibition at 100 mg/kg (platelet aggregation; [2]): 48%
inhibition at 100 mg/kg (platelet aggregation; [3]): 21%
IC50 [1]: 9 µM
IC50 (human leucocyte elastase): 3.4 µM

SMILES: CC(C)(C)C(=O)Oc1cc2c(s1)CC[N+](C)([O-])C2 (stereo not shown) [SR 27165]
IC50 [1]: 10 µM

SMILES: CCOC(=O)Oc1cc2c(s1)CC[N+]([O-])(Cc1ccccc1Cl)C2 (stereo not shown) [SR 26894]
IC50 [1]: 24 µM

SMILES: CN1CCc2sc(OC(=O)C(C)(C)C)cc2C1 [SR 26984, 5-methyl-4,5,6,7-tetrahydrothieno[3,2-c]pyrid-2-yl t-butyrate]
IC50 [1]: 3.6 µM
IC50 (human leucocyte elastase): 2.6 µM

SMILES: CC(C)C(=O)Oc1cc2c(s1)CCN(Cc1ccccc1)C2 [SR 26829]
IC50 [1]: 8 µM
IC50 (human leucocyte elastase): 24 µM

SMILES: CC(C)(C)C(=O)Oc1cc2c(s1)CC[N+]([O-])(Cc1ccccc1Cl)C2 (stereo not shown) [SR 26831]
IC50 [1]: 5 µM
IC50 (human leucocyte elastase): 2.5 µM

SMILES: COc1ccc(C[N+]2([O-])CCc3sc(OC(=O)C(C)(C)C)cc3C2)cc1 (stereo not shown) [SR 27262]
IC50 [1]: 1 µM
IC50 (human leucocyte elastase): 2.6 µM

SMILES: COc1ccc(CN2CCc3sc(OC(=O)C(C)(C)C)cc3C2)cc1 [SR 27261]
IC50 [1]: 4.5 µM
IC50 (human leucocyte elastase): 3.2 µM

SMILES: CC(c1ccccc1)N1CCc2sc(OC(=O)C(C)(C)C)cc2C1 (racemic) [SR 27319]
IC50 [1]: 4.5 µM
IC50 (human leucocyte elastase): 3.4 µM

SMILES: CC(C)C(=O)Oc1cc2c(s1)CN(Cc1ccccc1Cl)CC2 [SR 26862]
IC50 [1]: 4 µM

SMILES: CCCC(=O)Oc1cc2c(s1)CCN(Cc1ccc(Cl)cc1)C2 [SR 26767]
IC50 [1]: 4.8 µM
IC50 (human leucocyte elastase): 3.4 µM

Continued, values first:

IC50 [1]: 6.4 µM
IC50 (human leucocyte elastase): 2.6 µM
SMILES: CC(C)C(=O)Oc1cc2c(s1)CCNC2 [SR 26861, 4,5,6,7-Tetrahydrothieno[3,2-c]pyrid-2-yl isobutyrate, hydrochloride]

IC50 [1]: 2.2 µM
IC50 (human leucocyte elastase): 2.2 µM
SMILES: CC(C)(C)C(=O)Oc1cc2c(s1)C[N+]([O-])(Cc1ccccc1Cl)CC2 (stereo not shown) [SR 26998]

IC50 [1]: 32 µM
SMILES: CC(=O)Oc1cc2c(s1)CCN(C(C(=O)N1CCCC1)c1ccccc1Cl)C2 (stereo not shown) [SR 26913]

IC50 [1]: 2.5 µM
IC50 (human leucocyte elastase): 1.8 µM
SMILES: CC(C)(C)C(=O)Oc1cc2c(s1)CC[N+]([O-])(Cc1ccc(Cl)cc1)C2 (stereo not shown) [SR 26977]

IC50 [1]: 1.6 µM
SMILES: CC(C)(C)C(=O)Oc1cc2c(s1)CC[N+](C)(Cc1ccccc1Cl)C2 (stereo not shown) [SR 27168]

IC50 [1]: 10 µM
IC50 (human leucocyte elastase): 3 µM
SMILES: CCCN1CCc2sc(OC(=O)C(C)(C)C)cc2C1 [SR 27318, 5-propyl-4,5,6,7-tetrahyirothieno[3,2-c]pyrid-2-yl t-butyrate]

IC50 [1]: 2.2 µM
IC50 (human leucocyte elastase): 2.3 µM
SMILES: CC(C)(C)C(=O)Oc1cc2c(s1)CC[N+]([O-])(Cc1ccccc1)C2 (stereo not shown) [SR 26986]

IC50 [1]: 2 µM
IC50 (human leucocyte elastase): 3.5 µM
SMILES: CCCC(=O)Oc1cc2c(s1)CCN(Cc1ccccc1Cl)C2 [PCR 4094]

IC50 [1]: 6 µM
IC50 (human leucocyte elastase): 3.6 µM
SMILES: CC(C)C(=O)Oc1cc2c(s1)CC[N+]([O-])(Cc1ccccc1Cl)C2 (stereo not shown) [SR 26833]

IC50 [1]: 2.9 µM
IC50 (human leucocyte elastase): 30 µM
SMILES: COC(=O)C(c1ccccc1Cl)N1CCc2sc(OC(=O)C(C)C)cc2C1 (stereo not shown) [SR 26886]

IC50 [1]: 7 µM
IC50 (human leucocyte elastase): 5.6 µM
SMILES: CCCC(=O)Oc1cc2c(s1)CC[N+]([O-])(Cc1ccccc1Cl)C2 (stereo not shown) [SR 26832]

IC50 [1]: 1.7 µM
IC50 (human leucocyte elastase): 3.1 µM
SMILES: CC(C)(C)C(=O)Oc1cc2c(o1)CC[N+]([O-])(Cc1ccccc1Cl)C2 (stereo not shown) [SR 26993]

IC50 [1]: 10 µM
IC50 (human leucocyte elastase): 3.2 µM
SMILES: CC(C)(C)C(=O)Oc1cc2c(s1)CCNC2 [SR 26842, 4,5,6,7,-tetrahydrothieno[3,2-c]pyrid-2-yl t-butyrate]

IC50 [1]: 25 µM
SMILES: CC(=O)Oc1cc2c(s1)CC[N+]([O-])(C(C(=O)N1CCCC1)c1ccccc1Cl)C2 (stereo not shown) [SR 26914]

IC50 [1]: 15 µM
IC50 (human leucocyte elastase): 0.7 µM
SMILES: CCC[N+]1([O-])CCc2sc(OC(=O)C(C)(C)C)cc2C1 (stereo not shown) [SR 27325]
